Measurements: patent US20130316006A1, “PARTICLES, COMPOSITIONS AND METHODS FOR OPHTHALMIC AND/OR OTHER APPLICATIONS” (Kala Pharmaceuticals, Inc., priority 2012, published 2013)

Assays:
[1] = tested on: VEGF; assay: Rabbit VEGF-challenge model, leakage by fluorescein angiography; type: in vivo, Dutch belted rabbits; conditions: axitinib-MPP 5%, 50 μL every 4 hours days 1-6; Avastin one intravitreal injection day 1; VEGF day 3; angiography day 6
From the text: On day 3, the rabbits received an intravitreal injection of VEGF. On day 6, the rabbits were accessed for leakage via fluorescein angiography.
In this model, Dutch belted rabbits were given an intravitreal injection of VEGF to stimulate vascular growth. Fluorescein angiography was used to determine the degree to which the rabbits developed abnormal vascular and leakage.

[2] = Chemical stability of LE formulations to 25 kGy gamma irradiation (degradant concentrations); type: physicochemical
Experimental: Gamma irradiation of a formulation can cause chemical degradation and free radical generation and is a concern especially in aqueous formulations. LE is a soft steroid designed to metabolize via the hydrolytic or enzymatic cleavage of two ester bonds into PJ-91 and PJ-90. […] The concentrations of the degradants were measured immediately after being subjected to gamma irradiation (“Gamma irradiated initial”) and 4 weeks after being subjected to gamma irradiation (“gamma irradiated after 4 weeks”) using a Cobalt 60 gamma irradiation source at a dose of 25 kGy. […] [table]

[3] = physchem; conditions: 25 °C, water

Avastin®: bevacizumab; positive control, one intravitreal injection
Vessel growth and vascular leakage after intravitreal VEGF [1]: no change in retinal vasculature

CCOC(=O)O[C@]1(C(=O)OCCl)CC[C@H]2[C@@H]3CCC4=CC(=O)C=C[C@]4(C)[C@H]3[C@@H](O)C[C@@]21C [LE, loteprednol etabonate]
Amount of tetradeca when LE is gamma-irradiated [2]: above 1%

Nc1c(CC(=O)O)cccc1C(=O)c1ccc(Br)cc1 [bromfenac calcium]
solubility [3]: ~150 µg/mL
